Data on 1 molecule can be found in PMC9133015 (Nature Communications, 2022).

Common to all, as to experiment: Kinase inhibitor specificity profiling (Reaction Biology Corporation)
Format in all cases: biochemical
Holding throughout (design): % Enzyme Activity (relative to DMSO controls): concentration or dose not given beside the values

Assay [1] concerns the target T1, panel of 370 protein kinases (Homo sapiens, UniProt Q13177).
T1 construct: purchased Reaction Biology Corporation (assay service)
To be noted: 2 h, kinase PAK2; read-out: % Enzyme Activity (relative to DMSO controls).

Assay [2] deals with T2, panel of 370 protein kinases (Homo sapiens, UniProt Q99683).
T2 construct: purchased Reaction Biology Corporation (assay service)
T2 sequence (Q99683 whole entry): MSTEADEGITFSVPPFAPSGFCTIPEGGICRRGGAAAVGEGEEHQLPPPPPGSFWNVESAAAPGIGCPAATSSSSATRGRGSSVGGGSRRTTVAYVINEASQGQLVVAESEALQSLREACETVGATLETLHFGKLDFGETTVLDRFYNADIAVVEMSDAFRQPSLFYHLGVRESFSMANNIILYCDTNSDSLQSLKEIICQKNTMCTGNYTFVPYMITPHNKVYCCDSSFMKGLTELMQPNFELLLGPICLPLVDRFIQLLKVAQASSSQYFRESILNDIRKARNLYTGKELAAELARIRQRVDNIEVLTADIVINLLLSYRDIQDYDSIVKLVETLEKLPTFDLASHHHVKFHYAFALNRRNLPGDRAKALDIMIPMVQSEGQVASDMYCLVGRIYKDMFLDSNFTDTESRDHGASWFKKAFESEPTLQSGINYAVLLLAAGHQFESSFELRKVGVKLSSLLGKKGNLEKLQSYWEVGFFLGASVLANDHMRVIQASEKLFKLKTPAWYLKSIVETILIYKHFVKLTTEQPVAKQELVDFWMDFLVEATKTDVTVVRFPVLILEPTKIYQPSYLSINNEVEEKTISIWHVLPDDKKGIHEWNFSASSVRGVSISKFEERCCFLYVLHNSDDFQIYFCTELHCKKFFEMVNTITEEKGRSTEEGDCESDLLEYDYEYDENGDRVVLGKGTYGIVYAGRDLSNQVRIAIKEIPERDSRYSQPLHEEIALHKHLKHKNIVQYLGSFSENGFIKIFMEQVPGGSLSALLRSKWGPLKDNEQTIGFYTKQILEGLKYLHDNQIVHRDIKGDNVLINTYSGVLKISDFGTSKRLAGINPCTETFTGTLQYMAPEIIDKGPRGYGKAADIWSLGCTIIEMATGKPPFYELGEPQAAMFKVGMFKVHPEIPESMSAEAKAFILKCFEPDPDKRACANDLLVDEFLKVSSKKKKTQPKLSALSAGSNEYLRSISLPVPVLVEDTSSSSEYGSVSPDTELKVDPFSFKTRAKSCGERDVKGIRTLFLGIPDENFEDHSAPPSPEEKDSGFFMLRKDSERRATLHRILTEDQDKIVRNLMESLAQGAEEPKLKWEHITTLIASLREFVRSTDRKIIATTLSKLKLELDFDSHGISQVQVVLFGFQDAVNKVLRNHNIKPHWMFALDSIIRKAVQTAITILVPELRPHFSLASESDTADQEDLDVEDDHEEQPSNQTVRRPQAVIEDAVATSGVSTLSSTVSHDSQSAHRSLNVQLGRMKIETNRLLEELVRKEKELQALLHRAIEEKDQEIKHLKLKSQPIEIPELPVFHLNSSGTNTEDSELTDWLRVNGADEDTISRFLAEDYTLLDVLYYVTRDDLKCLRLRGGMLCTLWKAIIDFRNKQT
To be noted: 2 h, kinase ASK1/MAP3K5; read-out: % Enzyme Activity (relative to DMSO controls).

For assay [3], the target named is T3, panel of 370 protein kinases (Homo sapiens, UniProt Q08345).
T3 construct: purchased Reaction Biology Corporation (assay service)
As to conditions: 2 h, kinase DDR1; read-out: % Enzyme Activity (relative to DMSO controls).

In assay [4] the target is T4, panel of 370 protein kinases (Homo sapiens, UniProt O60285).
T4 construct: purchased Reaction Biology Corporation (assay service)
T4 sequence (O60285 whole entry): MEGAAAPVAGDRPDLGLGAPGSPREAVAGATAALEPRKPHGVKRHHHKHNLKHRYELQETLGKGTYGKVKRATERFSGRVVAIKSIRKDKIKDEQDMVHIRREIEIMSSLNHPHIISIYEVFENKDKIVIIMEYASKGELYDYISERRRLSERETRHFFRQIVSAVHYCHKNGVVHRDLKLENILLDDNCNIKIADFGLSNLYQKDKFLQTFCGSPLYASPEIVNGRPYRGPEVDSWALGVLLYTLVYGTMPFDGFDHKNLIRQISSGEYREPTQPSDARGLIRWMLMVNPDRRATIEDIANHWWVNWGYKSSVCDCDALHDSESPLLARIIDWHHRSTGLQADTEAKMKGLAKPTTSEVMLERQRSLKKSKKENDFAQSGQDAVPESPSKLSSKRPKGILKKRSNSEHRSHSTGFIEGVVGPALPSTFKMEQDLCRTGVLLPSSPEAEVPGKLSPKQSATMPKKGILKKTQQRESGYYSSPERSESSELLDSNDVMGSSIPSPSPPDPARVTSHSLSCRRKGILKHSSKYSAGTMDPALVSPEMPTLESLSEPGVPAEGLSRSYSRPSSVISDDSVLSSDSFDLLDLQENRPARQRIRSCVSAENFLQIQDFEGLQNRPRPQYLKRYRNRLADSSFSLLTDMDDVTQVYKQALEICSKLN
As to conditions: kinase ARK5/NUAK1.

The target in assay [5] is T5, panel of 370 protein kinases (Homo sapiens, UniProt P17252).
T5 construct: purchased Reaction Biology Corporation (assay service)
To be noted: 2 h, kinase PKCa; read-out: % Enzyme Activity (relative to DMSO controls).

The target in assay [6] is T6, panel of 370 protein kinases (Homo sapiens, UniProt Q14164).
T6 construct: purchased Reaction Biology Corporation (assay service)
To be noted: 2 h, kinase IKKe/IKBKE; read-out: % Enzyme Activity (relative to DMSO controls).

The target of assay [7] is T7, panel of 370 protein kinases (Homo sapiens, UniProt Q16644).
T7 construct: purchased Reaction Biology Corporation (assay service)
To be noted: 2 h, kinase MAPKAPK3; read-out: % Enzyme Activity (relative to DMSO controls).

The target of assay [8] is T8, panel of 370 protein kinases (Homo sapiens, UniProt P30291).
T8 construct: purchased Reaction Biology Corporation (assay service)
As to conditions: 2 h, kinase WEE1; read-out: % Enzyme Activity (relative to DMSO controls).

In assay [9] the target is T9, panel of 370 protein kinases (Homo sapiens, UniProt P54753).
T9 construct: purchased Reaction Biology Corporation (assay service)
As to conditions: 2 h, kinase EPHB3; read-out: % Enzyme Activity (relative to DMSO controls).

For assay [10], the target named is T10, panel of 370 protein kinases (Homo sapiens, UniProt Q86UX6).
T10 construct: purchased Reaction Biology Corporation (assay service)
As to conditions: 2 h, kinase STK32C/YANK3; read-out: % Enzyme Activity (relative to DMSO controls).

The target in assay [11] is T11, panel of 370 protein kinases (Homo sapiens, UniProt Q96PF2).
T11 construct: purchased Reaction Biology Corporation (assay service)
As to conditions: 2 h, kinase TSSK2; read-out: % Enzyme Activity (relative to DMSO controls).

The target of assay [12] is T12, panel of 370 protein kinases (Homo sapiens, UniProt Q9UEW8).
T12 construct: purchased Reaction Biology Corporation (assay service)
To be noted: 2 h, kinase STK39/STLK3; read-out: % Enzyme Activity (relative to DMSO controls).

The target in assay [13] is T13, panel of 370 protein kinases (Homo sapiens, UniProt Q00526).
T13 construct: purchased Reaction Biology Corporation (assay service)
T13 sequence (Q00526 whole entry): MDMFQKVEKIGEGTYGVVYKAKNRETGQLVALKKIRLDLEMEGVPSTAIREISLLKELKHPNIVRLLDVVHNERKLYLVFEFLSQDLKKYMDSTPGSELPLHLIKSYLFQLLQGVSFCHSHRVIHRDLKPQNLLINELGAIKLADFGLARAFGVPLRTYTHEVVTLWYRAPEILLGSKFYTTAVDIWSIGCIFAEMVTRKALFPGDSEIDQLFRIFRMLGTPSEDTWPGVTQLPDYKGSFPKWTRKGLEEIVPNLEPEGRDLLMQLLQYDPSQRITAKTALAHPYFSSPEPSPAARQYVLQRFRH

Assay [14] has as its target T14, panel of 370 protein kinases (Homo sapiens, UniProt Q8TD19).
T14 construct: purchased Reaction Biology Corporation (assay service)
As to conditions: 2 h, kinase NEK9; read-out: % Enzyme Activity (relative to DMSO controls).

The target of assay [15] is T15, panel of 370 protein kinases (Homo sapiens, UniProt Q13976).
T15 construct: purchased Reaction Biology Corporation (assay service)
T15 sequence (Q13976 whole entry): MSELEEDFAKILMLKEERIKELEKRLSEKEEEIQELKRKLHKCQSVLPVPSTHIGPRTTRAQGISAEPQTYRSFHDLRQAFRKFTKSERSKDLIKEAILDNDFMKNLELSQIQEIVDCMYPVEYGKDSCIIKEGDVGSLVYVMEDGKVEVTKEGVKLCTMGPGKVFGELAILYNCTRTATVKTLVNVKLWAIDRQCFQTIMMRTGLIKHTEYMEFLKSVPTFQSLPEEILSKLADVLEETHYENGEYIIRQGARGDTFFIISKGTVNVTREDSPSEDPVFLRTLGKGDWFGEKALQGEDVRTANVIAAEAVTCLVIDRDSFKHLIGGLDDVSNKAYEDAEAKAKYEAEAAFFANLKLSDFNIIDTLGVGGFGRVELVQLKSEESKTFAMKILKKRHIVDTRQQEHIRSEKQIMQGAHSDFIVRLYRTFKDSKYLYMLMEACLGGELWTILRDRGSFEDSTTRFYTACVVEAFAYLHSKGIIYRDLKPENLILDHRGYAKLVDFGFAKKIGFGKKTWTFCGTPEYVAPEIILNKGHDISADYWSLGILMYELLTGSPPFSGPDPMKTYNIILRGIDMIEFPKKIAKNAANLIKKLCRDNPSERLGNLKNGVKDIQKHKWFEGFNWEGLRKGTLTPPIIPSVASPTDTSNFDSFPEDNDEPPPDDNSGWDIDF
As to conditions: 2 h, kinase PKG1a; read-out: % Enzyme Activity (relative to DMSO controls).

Assay [16] deals with T16, panel of 370 protein kinases (Homo sapiens, UniProt Q13237).
T16 construct: purchased Reaction Biology Corporation (assay service)
To be noted: 2 h, kinase PKG2/PRKG2; read-out: % Enzyme Activity (relative to DMSO controls).

Assay [17] concerns the target T17, panel of 370 protein kinases (Homo sapiens, UniProt Q8N752).
T17 construct: purchased Reaction Biology Corporation (assay service)
As to conditions: 2 h, kinase CK1a1L; read-out: % Enzyme Activity (relative to DMSO controls).

The target of assay [18] is T18, panel of 370 protein kinases (Homo sapiens, UniProt P16234).
T18 construct: purchased Reaction Biology Corporation (assay service)
T18 sequence (P16234 24-1089): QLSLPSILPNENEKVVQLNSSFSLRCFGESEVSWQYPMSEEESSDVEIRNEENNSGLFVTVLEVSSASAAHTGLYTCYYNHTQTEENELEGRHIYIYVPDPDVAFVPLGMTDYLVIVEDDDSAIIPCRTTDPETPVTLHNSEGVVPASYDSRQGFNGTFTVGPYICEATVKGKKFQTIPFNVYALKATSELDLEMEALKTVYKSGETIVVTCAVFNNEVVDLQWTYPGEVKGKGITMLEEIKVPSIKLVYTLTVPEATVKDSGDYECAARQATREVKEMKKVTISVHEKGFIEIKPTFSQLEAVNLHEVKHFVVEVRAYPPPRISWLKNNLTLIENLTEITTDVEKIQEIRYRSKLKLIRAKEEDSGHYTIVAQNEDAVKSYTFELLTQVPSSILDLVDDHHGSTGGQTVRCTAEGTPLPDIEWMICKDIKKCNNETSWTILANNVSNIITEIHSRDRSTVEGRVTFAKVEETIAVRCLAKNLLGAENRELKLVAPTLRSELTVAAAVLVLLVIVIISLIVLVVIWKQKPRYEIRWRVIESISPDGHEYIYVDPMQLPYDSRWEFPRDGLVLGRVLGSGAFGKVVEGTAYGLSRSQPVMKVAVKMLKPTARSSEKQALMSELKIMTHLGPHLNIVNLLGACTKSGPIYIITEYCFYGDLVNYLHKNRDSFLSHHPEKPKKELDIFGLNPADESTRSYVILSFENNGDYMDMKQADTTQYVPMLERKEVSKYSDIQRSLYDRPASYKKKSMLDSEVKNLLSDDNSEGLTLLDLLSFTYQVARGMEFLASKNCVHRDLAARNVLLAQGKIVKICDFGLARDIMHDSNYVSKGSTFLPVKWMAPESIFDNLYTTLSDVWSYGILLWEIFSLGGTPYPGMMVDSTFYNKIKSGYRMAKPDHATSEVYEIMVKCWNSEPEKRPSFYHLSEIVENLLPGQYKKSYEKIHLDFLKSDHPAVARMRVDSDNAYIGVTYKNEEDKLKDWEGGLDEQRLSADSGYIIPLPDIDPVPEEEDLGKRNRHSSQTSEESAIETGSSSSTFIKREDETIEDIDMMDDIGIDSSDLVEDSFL
As to conditions: 2 h, kinase PDGFRa; read-out: % Enzyme Activity (relative to DMSO controls).

For assay [19], the target named is T19, panel of 370 protein kinases (Homo sapiens, UniProt P45984).
T19 construct: purchased Reaction Biology Corporation (assay service)
T19 sequence (P45984 whole entry): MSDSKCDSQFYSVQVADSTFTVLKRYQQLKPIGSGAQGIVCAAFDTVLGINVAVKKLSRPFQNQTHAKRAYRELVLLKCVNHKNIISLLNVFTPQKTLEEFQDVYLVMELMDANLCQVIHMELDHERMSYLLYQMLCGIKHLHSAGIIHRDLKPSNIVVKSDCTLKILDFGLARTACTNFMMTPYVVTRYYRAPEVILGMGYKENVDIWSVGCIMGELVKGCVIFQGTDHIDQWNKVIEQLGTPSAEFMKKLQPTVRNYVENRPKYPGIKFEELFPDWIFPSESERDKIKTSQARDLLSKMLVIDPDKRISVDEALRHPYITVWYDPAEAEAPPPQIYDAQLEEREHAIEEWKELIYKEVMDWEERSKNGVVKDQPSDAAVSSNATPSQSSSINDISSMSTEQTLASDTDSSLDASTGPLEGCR
To be noted: kinase JNK2.

The target in assay [20] is T20, panel of 370 protein kinases (Homo sapiens, UniProt Q96PY6).
T20 construct: purchased Reaction Biology Corporation (assay service)
To be noted: 2 h, kinase NEK1; read-out: % Enzyme Activity (relative to DMSO controls).

Assay [21] addresses T21, panel of 370 protein kinases (Homo sapiens, UniProt Q9Y5S2).
T21 construct: purchased Reaction Biology Corporation (assay service)
As to conditions: 2 h, kinase MRCKb/CDC42BPB; read-out: % Enzyme Activity (relative to DMSO controls).

Several values for one entry are separate records, joined by “and”; a condition that tells them apart may be missing. Equal entries are not always repeated.

T17 sequence (Q8N752 whole entry): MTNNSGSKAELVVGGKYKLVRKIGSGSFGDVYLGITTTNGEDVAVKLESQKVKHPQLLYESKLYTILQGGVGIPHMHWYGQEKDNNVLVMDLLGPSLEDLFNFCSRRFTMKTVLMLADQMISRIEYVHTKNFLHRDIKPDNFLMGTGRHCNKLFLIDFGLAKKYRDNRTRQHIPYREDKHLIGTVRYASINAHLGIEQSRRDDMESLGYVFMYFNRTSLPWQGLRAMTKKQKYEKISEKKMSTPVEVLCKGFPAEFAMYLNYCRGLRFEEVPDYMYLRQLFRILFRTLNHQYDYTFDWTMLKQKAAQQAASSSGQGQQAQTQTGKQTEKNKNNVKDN

For `CCN1CCN(C(=O)c2ccc(Nc3ncc(F)c(-c4ccc5nc(N(C)C)sc5c4)n3)nc2)CC1` [YK-2-69], the remaining activity at 1 µM was 94.7% in assay [1]; 106% in [2]; 86.2% in assay [3]; 80% in assay [5]; 98.5% in [6]; 116% in assay [7]. The remaining activity at 1 µM stood at 98.5% in assay [8]; 112% in assay [9]; 96.8% in [10]; 96.7% in assay [11]; 39.9% in [12]; 105% in [14]. Moreover, the remaining activity at 1 µM in assay [15] came out at 92.2%; in [16], 94.6%; in [17] it was 103%; in assay [18] it was 104%; in assay [20], 69.2%; in assay [21], 105%. The “% Enzyme Activity (relative to DMSO controls)” value was 87.08% and 86.46% in assay [4]; 106.69% and 103.49% in assay [13] (kinase CDK3/cyclin E); 101.82% and 90.67% in assay [13] (kinase CDK3/cyclin E2); 83.83% and 82.64% in assay [19].
